The source of these data is US12048677B2, “Compositions and uses thereof for the treatment of heart failure in domestic animals” (CEVA SANTE ANIMALE, priority 2014, dated 2024).

For test [1], the system named is dogs that had become resistant to furosemide. To be noted: torasemide dose ten times lower (1/10) than reference furosemide dose; cited from earlier work.
Test [2] has as its system dog model having no clinical signs of heart failure. To be noted: 0.2 mg/kg/day torasemide versus 2 mg/kg/day furosemide, seven days; cited from earlier work.
In the next test the test system is healthy dogs. Description: PK/PD studies of diuretic effect (urinary volume) after one-day and fourteen-day oral administration. The test is classed as in vivo. To be noted: for Urinary volume on day 1 / Urinary volume on day 14: healthy dogs. Here is the method:
Two pharmacokinetics studies (PK/PD) in healthy dogs have been performed to investigate and model the pharmacodynamic effects of torasemide, furosemide and placebo after a one-day and fourteen-day oral administration of furosemide at the following doses: 1 and 4 mg/kg/12 hours, and of torasemide at the following doses: 0.2, 0.25, 0.30 and 0.50 mg/kg/day. • 1 and 4 mg/kg furosemide have been administered to five dogs on the basis of repeated oral administration twice daily for 14 days (corresponding to 2 and 8 mg/kg/day). • 0 (placebo), 0.2, 0.25, 0.30 and 0.50 mg/kg torasemide have been administered to five dogs on the basis of repeated oral administration daily for 14 days.

Where [3] appears, read: torasemide 0.20 mg/kg/day oral once daily.
[4] abbreviates: torasemide 0.25 mg/kg/day oral once daily.
Setting [5] is: torasemide 0.30 mg/kg/day oral once daily.
[6] abbreviates: torasemide 0.5 mg/kg/day oral once daily.
The mark [7] stands for this setting: furosemide 2 mg/kg/day (1 mg/kg/12 hours) oral.
Setting [8] is: furosemide 8 mg/kg/day (4 mg/kg/12 hours) oral.

For the compound `Cc1cccc(Nc2ccncc2S(=O)(=O)NC(=O)NC(C)C)c1` [Torasemide, N-[(isopropylamino)carbonyl]-4-[(3-methylphenyl)amino] pyridine-3-sulfonamide], the “Diuretic potency compared with reference dose of furosemide” value in test [1] is “as potent in producing a diuretic effect”. Moreover, the “Diuretic potency compared with furosemide” value in test [2] is “as potent as furosemide”. For the same compound, the “Duration of diuretic effect compared with furosemide” value in test [2] is reported as “longer diuretic effect”. Further, in the test on healthy dogs (0.20 to 0.50 mg/kg/day of torasemide, day 1 and day 14), the “Urinary volume compared with test control (placebo)” value is reported as above 220 mL. In addition, the “Urinary volume on day 1” value with healthy dogs (setting [3]) is 455 mL; in the test with healthy dogs (setting [4]), 500 mL; in the test with healthy dogs (setting [5]), 659 mL; in the test with healthy dogs (setting [6]) it was 700 mL. The “Urinary volume on day 14” value was 561 mL with healthy dogs (setting [3]), 696 mL in the test with healthy dogs (setting [4]), 816 mL in the test with healthy dogs (setting [5]) and 1100 mL in the test on healthy dogs (setting [6]).

Regarding `NS(=O)(=O)c1cc(C(=O)O)c(NCc2ccco2)cc1Cl` [Furosemide, furosemide], in the test with healthy dogs (setting [7]), the “Urinary volume on day 1” value worked out at 374 mL and the “Urinary volume on day 14” value worked out at 532 mL. In the test on healthy dogs (setting [8]), the “Urinary volume on day 1” value was 620 mL and the “Urinary volume on day 14” value turned out to be 1033 mL.
